Data from PubChem BioAssay AID588666 (The Scripps Research Institute Molecular Screening Center, 2011).
Calls of active or inactive are those of the source.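 Rule for the calls: active = MAPK1 protein level shifted by at least 30% from DMSO-treated cells, either down or up; inactive = shift under 30% either way.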

Biological target: Mitogen-activated protein kinase 1 (Homo sapiens) (UniProt P28482)
Assay: reduction of total ERK1/2 protein levels, late-stage follow-up, counter-screen for KLF5 inhibitor project, SW620 cells, chemiluminescent western blot, powder samples (AID 588666)
Conditions: ERK1/2 western blot, 24 h, at 10 µM; for inhibition: stronger effect = higher value; for fold change: measured here: ERK1/2 protein fold change vs DMSO, stronger effect = lower value

Mitogen-activated protein kinase 1 (Homo sapiens), sequence (P28482 whole entry, looked up): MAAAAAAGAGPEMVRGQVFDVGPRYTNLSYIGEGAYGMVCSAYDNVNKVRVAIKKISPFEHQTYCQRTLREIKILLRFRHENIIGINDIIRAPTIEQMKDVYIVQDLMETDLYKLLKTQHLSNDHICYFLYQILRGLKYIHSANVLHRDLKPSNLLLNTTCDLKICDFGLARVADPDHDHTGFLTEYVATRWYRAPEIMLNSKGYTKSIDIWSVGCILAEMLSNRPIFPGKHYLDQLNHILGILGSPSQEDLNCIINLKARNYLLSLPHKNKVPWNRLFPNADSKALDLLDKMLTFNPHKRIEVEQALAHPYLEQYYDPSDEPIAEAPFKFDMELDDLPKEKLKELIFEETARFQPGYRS

Row | SMILES | inhibition | fold change
1 | CN(C(=O)CNC(=O)/C=C/c1cccc(Cl)c1)C1CCS(=O)(=O)CC1 | -9.9% (inactive) | 1.1
2 | CN(C(=O)CNC(=O)/C=C/c1cccc(Cl)c1)C1CCS(=O)(=O)C1 (stereo unspecified) | 26.9% (inactive) | -1.37
3 | CN(C(=O)COC(=O)/C=C/c1cccc([N+](=O)[O-])c1)C1CCS(=O)(=O)C1 (stereo unspecified) | 14.8% (inactive) | -1.17
